Data published in PMC9516332 (Frontiers in Oncology, 2022).
Like-named read-outs stand apart in the source and are kept apart here.

Tests used:
AP-1060 (ETV6-NTRK3) = experiment: Cell viability assay; conditions: read-out: IC50 in cell proliferation assay
[1] = biological target: panel of 255 wild-type kinases (Homo sapiens, UniProt Q9Y6M4); experiment: Kinase panel profiling at 1 µmol/L (MSA or IMAP), percentage inhibition; format: biochemical; conditions: kinase CK1γ3; 1 µmol/L single concentration; read-out: %-inhibition at 1 µmol/L, CK1γ3
[2] = biological target: panel of 255 wild-type kinases (Homo sapiens, UniProt P29317); experiment: as above; format: biochemical; conditions: kinase EPHA2; 1 µmol/L single concentration; read-out: %-inhibition at 1 µmol/L, EPHA2
134 cancer cell lines = experiment: Cell viability assay (ATPlite, 72 hours), IC50 on cancer cell line panel

C=CC(=O)N1CCC([C@@H]2CCNc3c(C(N)=O)c(-c4ccc(Oc5ccccc5)cc4)nn32)CC1 [zanubrutinib]
IC50 (AP-1060 (ETV6-NTRK3)): > 31.6 µM
inhibition at 1 µM [1]: -0.464%
inhibition at 1 µM [2]: -1.86%
IC50 (134 cancer cell lines; HEC-6, read-out: IC50 in cell proliferation assay): 0.355 µM
IC50 (134 cancer cell lines; Homo sapiens, 769-P, read-out: IC50 in cell proliferation assay): 4.48 µM
IC50 (134 cancer cell lines; Homo sapiens, 786-0, read-out: IC50 in cell proliferation assay): 2.19 µM
IC50 (134 cancer cell lines; Homo sapiens, A 172, read-out: IC50 in cell proliferation assay): > 31.6 µM
IC50 (134 cancer cell lines; Homo sapiens, A204, read-out: IC50 in cell proliferation assay): 27.9 µM
IC50 (134 cancer cell lines; Homo sapiens, A498, read-out: IC50 in cell proliferation assay): 5.51 µM
IC50 (134 cancer cell lines; Homo sapiens, A549, read-out: IC50 in cell proliferation assay): 24.7 µM
IC50 (134 cancer cell lines; Homo sapiens, A704, read-out: IC50 in cell proliferation assay): > 31.6 µM
IC50 (134 cancer cell lines; Homo sapiens, A-375, read-out: IC50 in cell proliferation assay): > 31.6 µM
IC50 (134 cancer cell lines; Homo sapiens, A-427, read-out: IC50 in cell proliferation assay): 8.55 µM
IC50 (134 cancer cell lines; Homo sapiens, ACHN, read-out: IC50 in cell proliferation assay): 2.75 µM
IC50 (134 cancer cell lines; Homo sapiens, AN3-CA, read-out: IC50 in cell proliferation assay): 29.8 µM
IC50 (134 cancer cell lines; Homo sapiens, ASPC1, read-out: IC50 in cell proliferation assay): 7.83 µM
IC50 (134 cancer cell lines; Homo sapiens, AU565, read-out: IC50 in cell proliferation assay): 0.303 µM
IC50 (134 cancer cell lines; Homo sapiens, BT-20, read-out: IC50 in cell proliferation assay): 15.1 µM
IC50 (134 cancer cell lines; Homo sapiens, BT-474, read-out: IC50 in cell proliferation assay): 0.213 µM
IC50 (134 cancer cell lines; Homo sapiens, BT-549, read-out: IC50 in cell proliferation assay): 12 µM
IC50 (134 cancer cell lines; Homo sapiens, BXPC-3, read-out: IC50 in cell proliferation assay): 3.04 µM
IC50 (134 cancer cell lines; Homo sapiens, C-33-A, read-out: IC50 in cell proliferation assay): 1.1 µM
IC50 (134 cancer cell lines; Homo sapiens, CAL-27, read-out: IC50 in cell proliferation assay): 1.37 µM
IC50 (134 cancer cell lines; Homo sapiens, CCF-STTG1, read-out: IC50 in cell proliferation assay): > 31.6 µM
IC50 (134 cancer cell lines; Homo sapiens, CCRF-CEM, read-out: IC50 in cell proliferation assay): 13.2 µM
IC50 (134 cancer cell lines; Homo sapiens, COLO 205, read-out: IC50 in cell proliferation assay): > 31.6 µM
IC50 (134 cancer cell lines; Homo sapiens, COLO-829, read-out: IC50 in cell proliferation assay): > 31.6 µM
IC50 (134 cancer cell lines; Homo sapiens, DLD-1, read-out: IC50 in cell proliferation assay): > 31.6 µM
IC50 (134 cancer cell lines; Homo sapiens, DU-145, read-out: IC50 in cell proliferation assay): 1.05 µM
IC50 (134 cancer cell lines; Homo sapiens, DU-4475, read-out: IC50 in cell proliferation assay): 18.1 µM
IC50 (134 cancer cell lines; Homo sapiens, Daoy, read-out: IC50 in cell proliferation assay): 23.4 µM
IC50 (134 cancer cell lines; Homo sapiens, DoTc2-4510, read-out: IC50 in cell proliferation assay): 1.5 µM
IC50 (134 cancer cell lines; Homo sapiens, EOL1, read-out: IC50 in cell proliferation assay): 2.74 µM
IC50 (134 cancer cell lines; Homo sapiens, FaDu, read-out: IC50 in cell proliferation assay): 0.751 µM
IC50 (134 cancer cell lines; Homo sapiens, G-361, read-out: IC50 in cell proliferation assay): 31.4 µM
IC50 (134 cancer cell lines; Homo sapiens, HCC827, read-out: IC50 in cell proliferation assay): 1.33 µM
IC50 (134 cancer cell lines; Homo sapiens, HCC4006, read-out: IC50 in cell proliferation assay): 1.36 µM
IC50 (134 cancer cell lines; Homo sapiens, HCT-15, read-out: IC50 in cell proliferation assay): 15.7 µM
IC50 (134 cancer cell lines; Homo sapiens, HCT-116, read-out: IC50 in cell proliferation assay): > 31.6 µM
IC50 (134 cancer cell lines; Homo sapiens, HEC-1, read-out: IC50 in cell proliferation assay): > 31.6 µM
IC50 (134 cancer cell lines; Homo sapiens, HEC-1B, read-out: IC50 in cell proliferation assay): 5.59 µM
IC50 (134 cancer cell lines; Homo sapiens, HL-60, read-out: IC50 in cell proliferation assay): > 31.6 µM
IC50 (134 cancer cell lines; Homo sapiens, HT, read-out: IC50 in cell proliferation assay): > 31.6 µM
IC50 (134 cancer cell lines; Homo sapiens, HT-1080, read-out: IC50 in cell proliferation assay): > 31.6 µM
IC50 (134 cancer cell lines; Homo sapiens, Hs746T, read-out: IC50 in cell proliferation assay): > 31.6 µM
IC50 (134 cancer cell lines; Homo sapiens, Hs-578T, read-out: IC50 in cell proliferation assay): 28.4 µM
IC50 (134 cancer cell lines; Homo sapiens, HuTu80, read-out: IC50 in cell proliferation assay): 0.961 µM
IC50 (134 cancer cell lines; Homo sapiens, J82, read-out: IC50 in cell proliferation assay): > 31.6 µM
IC50 (134 cancer cell lines; Homo sapiens, Jurkat E6.1, read-out: IC50 in cell proliferation assay): 19.1 µM
IC50 (134 cancer cell lines; Homo sapiens, K562, read-out: IC50 in cell proliferation assay): > 31.6 µM
IC50 (134 cancer cell lines; Homo sapiens, KATO III, read-out: IC50 in cell proliferation assay): 5.47 µM
IC50 (134 cancer cell lines; Homo sapiens, KG-1, read-out: IC50 in cell proliferation assay): 2.85 µM
IC50 (134 cancer cell lines; Homo sapiens, KLE, read-out: IC50 in cell proliferation assay): 2.73 µM
IC50 (134 cancer cell lines; Homo sapiens, KMS-11, read-out: IC50 in cell proliferation assay): 22.6 µM
IC50 (134 cancer cell lines; Homo sapiens, KU812, read-out: IC50 in cell proliferation assay): 12.3 µM
IC50 (134 cancer cell lines; Homo sapiens, Kasumi 1, read-out: IC50 in cell proliferation assay): 3.36 µM
IC50 (134 cancer cell lines; Homo sapiens, LC-2-ad, read-out: IC50 in cell proliferation assay): 16.5 µM
IC50 (134 cancer cell lines; Homo sapiens, LNCaP-Clone-FGC, read-out: IC50 in cell proliferation assay): 13.7 µM
IC50 (134 cancer cell lines; Homo sapiens, LS174T, read-out: IC50 in cell proliferation assay): 11.5 µM
IC50 (134 cancer cell lines; Homo sapiens, LS-411N, read-out: IC50 in cell proliferation assay): 12.4 µM
IC50 (134 cancer cell lines; Homo sapiens, LoVo, read-out: IC50 in cell proliferation assay): 24.9 µM
IC50 (134 cancer cell lines; Homo sapiens, MCF7, read-out: IC50 in cell proliferation assay): > 31.6 µM
IC50 (134 cancer cell lines; Homo sapiens, MDA-MB-231, read-out: IC50 in cell proliferation assay): > 31.6 µM
IC50 (134 cancer cell lines; Homo sapiens, MDA-MB-453, read-out: IC50 in cell proliferation assay): 4.19 µM
IC50 (134 cancer cell lines; Homo sapiens, MDA-MB-468, read-out: IC50 in cell proliferation assay): 3.9 µM
IC50 (134 cancer cell lines; Homo sapiens, MG-63, read-out: IC50 in cell proliferation assay): 29.3 µM
IC50 (134 cancer cell lines; Homo sapiens, MIA PaCa-2, read-out: IC50 in cell proliferation assay): > 31.6 µM
IC50 (134 cancer cell lines; Homo sapiens, MKN-45, read-out: IC50 in cell proliferation assay): > 31.6 µM
IC50 (134 cancer cell lines; Homo sapiens, MOLM-13, read-out: IC50 in cell proliferation assay): 2.06 µM
IC50 (134 cancer cell lines; Homo sapiens, MOLT-4, read-out: IC50 in cell proliferation assay): 16.5 µM
IC50 (134 cancer cell lines; Homo sapiens, MV4-11, read-out: IC50 in cell proliferation assay): 3.72 µM
IC50 (134 cancer cell lines; Homo sapiens, MeWo, read-out: IC50 in cell proliferation assay): > 31.6 µM
IC50 (134 cancer cell lines; Homo sapiens, NCCIT, read-out: IC50 in cell proliferation assay): 11.4 µM
IC50 (134 cancer cell lines; Homo sapiens, NCI-H82, read-out: IC50 in cell proliferation assay): > 31.6 µM
IC50 (134 cancer cell lines; Homo sapiens, NCI-H460, read-out: IC50 in cell proliferation assay): > 31.6 µM
IC50 (134 cancer cell lines; Homo sapiens, NCI-H661, read-out: IC50 in cell proliferation assay): 0.612 µM
IC50 (134 cancer cell lines; Homo sapiens, NCI-H716, read-out: IC50 in cell proliferation assay): 11.7 µM
IC50 (134 cancer cell lines; Homo sapiens, NCI-H1650, read-out: IC50 in cell proliferation assay): 13.9 µM
IC50 (134 cancer cell lines; Homo sapiens, NCI-H1975, read-out: IC50 in cell proliferation assay): 4.6 µM
IC50 (134 cancer cell lines; Homo sapiens, NCI-H2228, read-out: IC50 in cell proliferation assay): > 31.6 µM
IC50 (134 cancer cell lines; Homo sapiens, OVCAR-3, read-out: IC50 in cell proliferation assay): 1.53 µM
IC50 (134 cancer cell lines; Homo sapiens, PFSK-1, read-out: IC50 in cell proliferation assay): 18 µM
IC50 (134 cancer cell lines; Homo sapiens, RL95-2, read-out: IC50 in cell proliferation assay): 1.17 µM
IC50 (134 cancer cell lines; Homo sapiens, RPMI-7951, read-out: IC50 in cell proliferation assay): > 31.6 µM
IC50 (134 cancer cell lines; Homo sapiens, RS4-11, read-out: IC50 in cell proliferation assay): 26.5 µM
IC50 (134 cancer cell lines; Homo sapiens, SHP77, read-out: IC50 in cell proliferation assay): > 31.6 µM
IC50 (134 cancer cell lines; Homo sapiens, SK-BR-3, read-out: IC50 in cell proliferation assay): 0.141 µM
IC50 (134 cancer cell lines; Homo sapiens, SK-N-AS, read-out: IC50 in cell proliferation assay): 15.5 µM
IC50 (134 cancer cell lines; Homo sapiens, SK-N-FI, read-out: IC50 in cell proliferation assay): > 31.6 µM
IC50 (134 cancer cell lines; Homo sapiens, SK-N-MC, read-out: IC50 in cell proliferation assay): 23.1 µM
IC50 (134 cancer cell lines; Homo sapiens, SK-N-SH, read-out: IC50 in cell proliferation assay): > 31.6 µM
IC50 (134 cancer cell lines; Homo sapiens, SNU-5, read-out: IC50 in cell proliferation assay): 8.94 µM
IC50 (134 cancer cell lines; Homo sapiens, SNU-16, read-out: IC50 in cell proliferation assay): 8.54 µM
IC50 (134 cancer cell lines; Homo sapiens, SNU-C2B, read-out: IC50 in cell proliferation assay): 0.866 µM
IC50 (134 cancer cell lines; Homo sapiens, SU-DHL-1, read-out: IC50 in cell proliferation assay): 16.8 µM
IC50 (134 cancer cell lines; Homo sapiens, SU-DHL-6, read-out: IC50 in cell proliferation assay): 0.00375 µM
IC50 (134 cancer cell lines; Homo sapiens, SUP-T1, read-out: IC50 in cell proliferation assay): 17.5 µM
IC50 (134 cancer cell lines; Homo sapiens, SW48, read-out: IC50 in cell proliferation assay): 0.043 µM
IC50 (134 cancer cell lines; Homo sapiens, SW480, read-out: IC50 in cell proliferation assay): 9.56 µM
IC50 (134 cancer cell lines; Homo sapiens, SW626, read-out: IC50 in cell proliferation assay): 2.71 µM
IC50 (134 cancer cell lines; Homo sapiens, SW780, read-out: IC50 in cell proliferation assay): 5.82 µM
IC50 (134 cancer cell lines; Homo sapiens, SW837, read-out: IC50 in cell proliferation assay): 6 µM
IC50 (134 cancer cell lines; Homo sapiens, SW872, read-out: IC50 in cell proliferation assay): > 31.6 µM
IC50 (134 cancer cell lines; Homo sapiens, SW900, read-out: IC50 in cell proliferation assay): 5.84 µM
IC50 (134 cancer cell lines; Homo sapiens, SW948, read-out: IC50 in cell proliferation assay): > 31.6 µM
IC50 (134 cancer cell lines; Homo sapiens, SW982, read-out: IC50 in cell proliferation assay): > 31.6 µM
IC50 (134 cancer cell lines; Homo sapiens, SW-620, read-out: IC50 in cell proliferation assay): 4.75 µM
IC50 (134 cancer cell lines; Homo sapiens, T98G, read-out: IC50 in cell proliferation assay): > 31.6 µM
IC50 (134 cancer cell lines; Homo sapiens, TCC-SUP, read-out: IC50 in cell proliferation assay): > 31.6 µM
IC50 (134 cancer cell lines; Homo sapiens, THP-1, read-out: IC50 in cell proliferation assay): > 31.6 µM
IC50 (134 cancer cell lines; Homo sapiens, U2OS, read-out: IC50 in cell proliferation assay): 10.7 µM
IC50 (134 cancer cell lines; Homo sapiens, U-87 MG, read-out: IC50 in cell proliferation assay): > 31.6 µM
IC50 (134 cancer cell lines; Homo sapiens, U-118-MG, read-out: IC50 in cell proliferation assay): > 31.6 µM
IC50 (134 cancer cell lines; Homo sapiens, UMUC3, read-out: IC50 in cell proliferation assay): 24.1 µM
IC50 (134 cancer cell lines; Hs766T, read-out: IC50 in cell proliferation assay): > 31.6 µM
IC50 (134 cancer cell lines; L-82, read-out: IC50 in cell proliferation assay): 17.6 µM
IC50 (134 cancer cell lines; Rh30, read-out: IC50 in cell proliferation assay): 17.4 µM
